Assay results from the supplement of paper PMC10627819.

Tests used:
Experiment in all cases: fitness (endpoint OD595 vs no drug) (fraction); higher = more growth
B. subtilis 168 = test system: B. subtilis 168
In short: (§1)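 In 384-well plates at 37 °C, cultures began at OD595 0.01 in 30 µl, with 55 µl used for S. pneumoniae. OD595 readings every 30 min for 14 h were corrected by the first reading. Fitness divides the stationary-phase transition optical density by the robust mean of no-drug control wells. The result is capped at 1.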

S. aureus DSM 20231 = test system: S. aureus DSM 20231
In short: as §1

S. pneumoniae D39V = test system: S. pneumoniae D39V
In short: as §1
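Also: OD595 on entry to stationary phase over no-drug wells; at most 1.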

CN(C)[C@@H]1C(O)=C(C(N)=O)C(=O)[C@@]2(O)C(O)=C3C(=O)c4c(O)ccc(Cl)c4[C@@](C)(O)[C@H]3C[C@@H]12 [Chlortetracycline] + CC1=C\[C@@H](O)CC(=O)Cc2nc(co2)C(=O)N2CCC=C2C(=O)O[C@H](C(C)C)[C@H](C)/C=C/C(=O)NC\C=C\1 [Virginiamycin M1]
Conditions | fitness
B. subtilis 168, first compound 0.0475 µg/mL, partner 0.0625 µg/mL | 0.874
B. subtilis 168, first compound 0.0475 µg/mL, partner 0.125 µg/mL | 0.898
B. subtilis 168, first compound 0.0475 µg/mL, partner 0.25 µg/mL | 0.87
B. subtilis 168, first compound 0.095 µg/mL, partner 0.0625 µg/mL | 0.823
B. subtilis 168, first compound 0.095 µg/mL, partner 0.125 µg/mL | 0.725
B. subtilis 168, first compound 0.095 µg/mL, partner 0.25 µg/mL | 0.759
B. subtilis 168, first compound 0.19 µg/mL, partner 0.0625 µg/mL | 0.55
B. subtilis 168, first compound 0.19 µg/mL, partner 0.125 µg/mL | 0.547
B. subtilis 168, first compound 0.19 µg/mL, partner 0.25 µg/mL | 0.568
S. aureus DSM 20231, first compound 0.012 µg/mL, partner 0.0625 µg/mL | 0.565
S. aureus DSM 20231, first compound 0.012 µg/mL, partner 0.125 µg/mL | 0.533
S. aureus DSM 20231, first compound 0.012 µg/mL, partner 0.25 µg/mL | 0.567
S. aureus DSM 20231, first compound 0.024 µg/mL, partner 0.0625 µg/mL | 0.191
S. aureus DSM 20231, first compound 0.024 µg/mL, partner 0.125 µg/mL | 0.183
S. aureus DSM 20231, first compound 0.024 µg/mL, partner 0.25 µg/mL | 0.188
S. aureus DSM 20231, first compound 0.048 µg/mL, partner 0.0625 µg/mL | 0.0421
S. aureus DSM 20231, first compound 0.048 µg/mL, partner 0.125 µg/mL | 0.0556
S. aureus DSM 20231, first compound 0.048 µg/mL, partner 0.25 µg/mL | 0.0619
S. pneumoniae D39V, first compound 0.012 µg/mL, partner 2 µg/mL | 0.817
S. pneumoniae D39V, first compound 0.024 µg/mL, partner 2 µg/mL | 0.787
S. pneumoniae D39V, first compound 0.048 µg/mL, partner 2 µg/mL | 0.74
S. pneumoniae D39V, first compound 0.375 µg/mL, partner 0.5 µg/mL | 0.025
S. pneumoniae D39V, first compound 0.375 µg/mL, partner 1 µg/mL | 0.0379
S. pneumoniae D39V, first compound 0.375 µg/mL, partner 2 µg/mL | 0.0569
S. pneumoniae D39V, first compound 0.75 µg/mL, partner 0.5 µg/mL | 0.0422
S. pneumoniae D39V, first compound 0.75 µg/mL, partner 1 µg/mL | 0.0446
S. pneumoniae D39V, first compound 0.75 µg/mL, partner 2 µg/mL | 0.0829
S. pneumoniae D39V, first compound 1.5 µg/mL, partner 0.5 µg/mL | 0.0504
S. pneumoniae D39V, first compound 1.5 µg/mL, partner 1 µg/mL | 0.0561
S. pneumoniae D39V, first compound 1.5 µg/mL, partner 2 µg/mL | 0.0443

fitness, one replicate
Conditions | first compound 0.006 µg/mL | first compound 0.012 µg/mL | first compound 0.024 µg/mL | first compound 0.048 µg/mL
S. aureus DSM 20231, partner 0.0625 µg/mL | 0.776 | – | – | –
S. aureus DSM 20231, partner 0.125 µg/mL | 0.785 | – | – | –
S. aureus DSM 20231, partner 0.25 µg/mL | 0.809 | – | – | –
S. aureus DSM 20231, partner 0.5 µg/mL | – | 0.495 | 0.146 | 0.0554
S. aureus DSM 20231, partner 1 µg/mL | – | 0.462 | 0.284 | 0.263
S. pneumoniae D39V, partner 0.15 µg/mL | – | 0.955 | 0.895 | 0.825
S. pneumoniae D39V, partner 0.3 µg/mL | – | 0.86 | 0.859 | 0.782
S. pneumoniae D39V, partner 0.5 µg/mL | – | 0.889 | 0.89 | 0.848
S. pneumoniae D39V, partner 1 µg/mL | – | 0.88 | 0.845 | 0.761

CN(C)[C@@H]1C(O)=C(C(N)=O)C(=O)[C@@]2(O)C(O)=C3C(=O)c4c(O)ccc(Cl)c4[C@@](C)(O)[C@H]3C[C@@H]12 [Chlortetracycline] + C[n+]1ccc(-c2cc[n+](C)cc2)cc1 [Paraquat]
fitness
Conditions | partner 1.25 µg/mL | partner 1.5 µg/mL | partner 2.5 µg/mL | partner 3 µg/mL | partner 5 µg/mL | partner 6 µg/mL
B. subtilis 168, first compound 0.0475 µg/mL | 0.92 | – | 0.877 | – | 0.839 | –
B. subtilis 168, first compound 0.095 µg/mL | 0.805 | – | 0.748 | – | 0.715 | –
B. subtilis 168, first compound 0.19 µg/mL | 0.609 | – | 0.524 | – | 0.429 | –
S. aureus DSM 20231, first compound 0.012 µg/mL | 0.568 | – | 0.597 | – | 0.574 | –
S. aureus DSM 20231, first compound 0.024 µg/mL | 0.266 | – | 0.294 | – | 0.261 | –
S. aureus DSM 20231, first compound 0.048 µg/mL | 0.0591 | – | 0.169 | – | 0.0904 | –
S. pneumoniae D39V, first compound 0.375 µg/mL | – | 0.073 | – | 0.0531 | – | 0.0597
S. pneumoniae D39V, first compound 0.75 µg/mL | – | 0.055 | – | 0.0649 | – | 0.0514
S. pneumoniae D39V, first compound 1.5 µg/mL | – | 0.048 | – | 0.0551 | – | 0.0491

fitness, one replicate
Conditions | partner 1.25 µg/mL | partner 1.5 µg/mL | partner 2.5 µg/mL | partner 3 µg/mL | partner 5 µg/mL | partner 6 µg/mL
S. aureus DSM 20231, first compound 0.006 µg/mL | 0.72 | – | 0.718 | – | 0.704 | –
S. pneumoniae D39V, first compound 0.012 µg/mL | – | 0.976 | – | ≥ 1 | – | ≥ 1
S. pneumoniae D39V, first compound 0.024 µg/mL | – | 0.941 | – | 0.95 | – | 0.987
S. pneumoniae D39V, first compound 0.048 µg/mL | – | 0.852 | – | 0.868 | – | 0.875
